Laboratory results as given in patent US9932331B2, “Phenyl tetrahydroisoquinoline compound substituted with heteroaryl” (TAISHO PHARMACEUTICAL CO., LTD, priority 2014, dated 2018).
Counter-ions that a name gives are not always drawn.

Molecular target: T1, human NHE3 (Homo sapiens, UniProt P48764)
T1 sequence (P48764 26-834): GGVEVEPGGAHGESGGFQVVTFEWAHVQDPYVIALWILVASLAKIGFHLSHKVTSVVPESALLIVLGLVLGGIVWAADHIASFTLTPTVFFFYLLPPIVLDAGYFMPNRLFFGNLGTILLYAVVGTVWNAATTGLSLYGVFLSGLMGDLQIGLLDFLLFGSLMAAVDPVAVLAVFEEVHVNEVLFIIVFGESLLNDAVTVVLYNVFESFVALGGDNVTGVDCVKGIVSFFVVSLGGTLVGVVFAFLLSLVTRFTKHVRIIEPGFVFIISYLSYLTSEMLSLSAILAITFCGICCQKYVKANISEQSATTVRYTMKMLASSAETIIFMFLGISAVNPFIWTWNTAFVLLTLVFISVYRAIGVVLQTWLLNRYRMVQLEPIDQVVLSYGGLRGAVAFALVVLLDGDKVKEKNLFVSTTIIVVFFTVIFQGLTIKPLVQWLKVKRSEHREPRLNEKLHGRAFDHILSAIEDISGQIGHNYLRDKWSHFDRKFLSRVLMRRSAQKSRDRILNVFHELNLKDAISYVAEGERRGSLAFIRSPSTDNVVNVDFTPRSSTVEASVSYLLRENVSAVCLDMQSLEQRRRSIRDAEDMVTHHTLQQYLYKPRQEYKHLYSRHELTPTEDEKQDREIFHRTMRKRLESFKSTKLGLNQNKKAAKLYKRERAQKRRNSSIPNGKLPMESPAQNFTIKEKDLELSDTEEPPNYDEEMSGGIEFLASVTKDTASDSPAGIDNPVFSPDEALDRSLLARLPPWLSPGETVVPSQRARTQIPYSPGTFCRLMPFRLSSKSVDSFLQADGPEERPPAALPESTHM
Test: NHE3 inhibition test (recovery of intracellular pH in cell line stably expressing human NHE3)
Type: cell-based
Conditions: OK cells deficient in endogenous NHE stably expressing human NHE3; BCECF fluorescence, initial rate of pH recovery; read-out: human NHE3 inhibitory activity IC50
Procedure: (1) Preparation of Cell Line Deficient in Endogenous NHE
The cell line deficient in endogenous NHE was prepared according to the method of Jacques Pouyssegur et al. (Proc. Natl. Acad. Sci. USA. 1984, Vol. 81, 4833-4837) using opossum kidney (OK) cells (ATCC).
(2) Preparation of Expression Plasmid and Cell Line Stably Expressing Human NHE3
The expression plasmid was constructed by inserting a human NHE3 (SLC9A3, Accession No. NM_004174) cDNA sequence (GeneCopoeia, Inc.) into a pcDNA3.2/V5-DEST vector (Life Technologies Corp.).
The OK cells deficient in endogenous NHE were transfected with the constructed human NHE3 expression plasmid to prepare stably expressing cells. The transfection was carried out by electroporation using a Nucleofector 2b device (Lonza Group Ltd.). A stably expressing cell line was selected in medium supplemented with 500 μg/mL Geneticin (Life Technologies Corp.) and isolated.
NHE3 activity measurement method using cell: The activity was determined by using the NHE3-mediated recovery of intracellular pH occurring after intracellular acidification, as an index. The intracellular pH was measured by a partial modification of the pH-sensitive fluorescent indicator method reported by Tsien et al. (Proc. Natl. Acad. Sci. USA., 1984, 81, 7436-7440).
The cell line stably expressing human NHE3 was inoculated on a poly-D-lysine-coated 96-well plate (Greiner Bio-one) and cultured overnight. […] Then, Hank's balanced salt buffer solution containing 0.25 μM BCECF-AM (Dojindo Laboratories) was added to the cells, which were then incubated at 37° C. for 30 minutes. […] The cells thus incubated in the NH4Cl buffer solution were washed with NH4Cl-free buffer solution (133.8 mM choline chloride, […], 5 mM glucose, 4.7 mM KCl, 1.25 mM CaCl2, 1.25 mM MgCl2, 0.97 mM K2HPO4, 0.23 mM KH2PO4, pH 7.4) to decrease the intracellular pH. After the washing step, 70 μL of a test compound solution prepared with the NH4Cl-free buffer solution was added to the cells, and 70 iμL of sodium ion-containing buffer solution (133.8 mM NaCl, 10 mM HEPES, 5 mM glucose, 4.7 mM KCl, 1.25 mM CaCl2, 1.25 mM MgCl2, 0.97 mM Na2HPO4, 0.23 mM NaH2PO4, pH 7.4) was added thereto in a measurement system FDSS6000 (Hamamatsu Photonics K.K.) to start the recovery of pH. The recovery of intracellular pH was monitored using BCECF fluorescence (excitation wavelength: 480 nm, fluorescence wavelength: 520 to 560 nm), and the initial rate of the pH recovery was plotted. The recovery of pH without test compound was defined as the maximum recovery, and the test compound concentration necessary to inhibit 50% of the maximum recovery was calculated as an IC50 value.

Structure (SMILES) | IC50
CN1Cc2c(Cl)cc(Cl)cc2C(c2cccc(-c3ccnc(NCCOCCOCCNC(=O)Nc4ccc(NC(=O)NCCOCCOCCNc5cc(-c6cccc(C7CN(C)Cc8c(Cl)cc(Cl)cc87)c6)ccn5)cc4)c3)c2)C1 (stereo not shown) [Example 7-41, 1,1′-Benzene-1,4-diylbis[3-(2-{2-[2-({4-[3-(6,8-dichloro-2-methyl-1,2,3,4-tetrahydroisoquinolin-4-yl)phenyl]pyridin-2-yl}amino)ethoxy]ethoxy}ethyl)urea]trifluoroacetate] | 5.52 µM
CN1Cc2c(Cl)cc(Cl)cc2[C@H](c2cccc(-c3cn(CCOCCOCCNC(=O)[C@@H](O)[C@H](O)[C@H](O)[C@@H](O)C(=O)NCCOCCOCCn4cc(-c5cccc([C@@H]6CN(C)Cc7c(Cl)cc(Cl)cc76)c5)nn4)nn3)c2)C1 [Example 6-7, (2R,3S,4R,5S)—N,N′-Bis(2-{2-[2-(4-{3-[(4S)-6,8-dichloro-2-methyl-1,2,3,4-tetrahydroisoquinolin-4-yl]phenyl}-1H-1,2,3-triazol-1-yl)ethoxy]ethoxy}ethyl)-2,3,4,5-tetrahydroxyhexanediamide hydrochloride] | 0.0011 µM
CN1Cc2c(Cl)cc(Cl)cc2[C@H](c2cccc(-c3ccnnc3)c2)C1 [Example 1-17, (4S)-6,8-Dichloro-2-methyl-4-[3-(pyridazin-4-yl)phenyl]-1,2,3,4-tetrahydroisoquinoline trifluoroacetate] | 0.109 µM
CN1Cc2c(Cl)cc(Cl)cc2[C@H](c2cccc(-c3cc(OCCOCCOCCOCCNC(=O)CCC(=O)NCCOCCOCCOCCOc4cc(-c5cccc([C@@H]6CN(C)Cc7c(Cl)cc(Cl)cc76)c5)ncn4)ncn3)c2)C1 [Example 8-22, N,N′-Bis{2-[2-(2-{2-[(6-{3-[(4S)-6,8-dichloro-2-methyl-1,2,3,4-tetrahydroisoquinolin-4-yl]phenyl}pyrimidin-4-yl)oxy]ethoxy}ethoxy)ethoxy]ethyl}butanediamide hydrochloride] | 0.0105 µM
CNc1cc(-c2cccc([C@@H]3CN(C)Cc4c(Cl)cc(Cl)cc43)c2)ccn1 [Example 1-9, 4-{3-[(4S)-6,8-Dichloro-2-methyl-1,2,3,4-tetrahydroisoquinolin-4-yl]phenyl}-N-methylpyridin-2-amine trifluoroacetate] | 0.561 µM
CNc1cc(-c2cccc([C@@H]3CN(C)Cc4c(Cl)cc(Cl)cc43)c2)ncn1 [Example 1-15, 6-{3-[(4S)-6,8-Dichloro-2-methyl-1,2,3,4-tetrahydroisoquinolin-4-yl]phenyl}-N-methylpyrimidin-4-amine trifluoroacetate] | 0.117 µM
CN1Cc2c(Cl)cc(Cl)cc2[C@H](c2cccc(-c3ncco3)c2)C1 [Example 1-22, (4S)-6,8-Dichloro-2-methyl-4-[3-(1,3-oxazol-2-yl)phenyl]-1,2,3,4-tetrahydroisoquinoline hydrochloride] | 0.306 µM

Now from value to molecule:

IC50 | Structure (SMILES)
0.0019 µM | CN1Cc2c(Cl)cc(Cl)cc2[C@H](c2cccc(-c3nnc(CCOCCOCCOCCNC(=O)[C@H](O)[C@@H](O)C(=O)NCCOCCOCCOCCc4nnc(-c5cccc([C@@H]6CN(C)Cc7c(Cl)cc(Cl)cc76)c5)[nH]4)[nH]3)c2)C1 [Example 8-15, (2R,3R)-N,N′-Bis[2-(2-{2-[2-(5-{3-[(4S)-6,8-dichloro-2-methyl-1,2,3,4-tetrahydroisoquinolin-4-yl]phenyl}-4H-1,2,4-triazol-3-yl)ethoxy]ethoxy}ethoxy)ethyl]-2,3-dihydroxybutanediamide diformate]
1.17 µM | CN1Cc2c(Cl)cc(Cl)cc2[C@H](c2cccc(-c3ccc[nH]3)c2)C1 [Example 1-21, (4S)-6,8-Dichloro-2-methyl-4-[3-(1H-pyrrol-2-yl)phenyl]-1,2,3,4-tetrahydroisoquinoline]
0.0107 µM | CN1Cc2c(Cl)cc(Cl)cc2[C@H](c2cccc(-c3ccc(NCCOCCOCCNC(=O)[C@H](O)[C@@H](O)C(=O)NCCOCCOCCNc4ccc(-c5cccc([C@@H]6CN(C)Cc7c(Cl)cc(Cl)cc76)c5)cn4)nc3)c2)C1 [Example 8-2, (2R,3R)-N,N′-Bis[2-(2-{2-[(5-{3-[(4S)-6,8-dichloro-2-methyl-1,2,3,4-tetrahydroisoquinolin-4-yl]phenyl}pyridin-2-yl)amino]ethoxy}ethoxy)ethyl]-2,3-dihydroxybutanediamide hydrochloride]
0.0068 µM | CN1Cc2c(Cl)cc(Cl)cc2[C@H](c2cccc(-c3cnnc(NCCOCCOCCOCCNC(=O)[C@H](O)[C@@H](O)C(=O)NCCOCCOCCOCCNc4cc(-c5cccc([C@@H]6CN(C)Cc7c(Cl)cc(Cl)cc76)c5)cnn4)c3)c2)C1 [Example 8-19, (2R,3R)-N,N′-Bis{2-[2-(2-{2-[(5-{3-[(4S)-6,8-dichloro-2-methyl-1,2,3,4-tetrahydroisoquinolin-4-yl]phenyl}pyridazin-3-yl)amino]ethoxy}ethoxy)ethoxy]ethyl}-2,3-dihydroxybutanediamide tetrahydrochloride]
0.0057 µM | CN1Cc2c(Cl)cc(Cl)cc2[C@H](c2cccc(-c3nnc(CCOCCOCCOCCNC(=O)NCCCCNC(=O)NCCOCCOCCOCCc4nnc(-c5cccc([C@@H]6CN(C)Cc7c(Cl)cc(Cl)cc76)c5)[nH]4)[nH]3)c2)C1 [Example 7-22, 1,1′-Butane-1,4-diylbis {3-[2-(2-{2-[2-(5-{3-[(4S)-6,8-dichloro-2-methyl-1,2,3,4-tetrahydroisoquinolin-4-yl]phenyl}-4H-1,2,4-triazol-3-yl)ethoxy]ethoxy}ethoxy)ethyl]urea} diformate]
0.0181 µM | CN1Cc2c(Cl)cc(Cl)cc2[C@H](c2cccc(-c3cnnc(NCCOCCOCCOCCNC(=O)NCCCCNC(=O)NCCOCCOCCOCCNc4cc(-c5cccc([C@@H]6CN(C)Cc7c(Cl)cc(Cl)cc76)c5)cnn4)c3)c2)C1 [Example 7-32, 1,1′-Butane-1,4-diylbis(3-{2-[2-(2-{2-[(5-{3-[(4S)-6,8-dichloro-2-methyl-1,2,3,4-tetrahydroisoquinolin-4-yl]phenyl}pyridazin-3-yl)amino]ethoxy}ethoxy)ethoxy]ethyl}urea) tetrahydrochloride]
3.22 µM | CN1Cc2c(Cl)cc(Cl)cc2[C@H](c2cccc(-c3ccco3)c2)C1 [Example 1-23, (4S)-6,8-Dichloro-4-[3-(furan-2-yl)phenyl]-2-methyl-1,2,3,4-tetrahydroisoquinoline]
0.392 µM | CN1Cc2c(Cl)cc(Cl)cc2[C@H](c2cccc(-c3ccn[nH]3)c2)C1 [Example 1-3, (4S)-6,8-Dichloro-2-methyl-4-[3-(1H-pyrazol-3-yl)phenyl]-1,2,3,4-tetrahydroisoquinoline]
0.0075 µM | CN1Cc2c(Cl)cc(Cl)cc2[C@@H](c2cccc(-c3cc(NCCOCCOCCOCCNC(=O)COCC(=O)NCCOCCOCCOCCNc4cc(-c5cccc([C@@H]6CN(C)Cc7c(Cl)cc(Cl)cc76)c5)ncn4)ncn3)c2)C1 [Example 8-11, 1-[(6-{3-[(4R)-6,8-Dichloro-2-methyl-1,2,3,4-tetrahydroisoquinolin-4-yl]phenyl}pyrimidin-4-yl)amino]-N-{2-[2-(2-{2-[(6-{3-[(4S)-6,8-dichloro-2-methyl-1,2,3,4-tetrahydroisoquinolin-4-yl]phenyl}pyrimidin-4-yl)amino]ethoxy}ethoxy)ethoxy]ethyl}-13-oxo-3,6,9,15-tetraoxa-12-azaheptadecan-17-amide hydrochloride]
